Test results reported in PubChem BioAssay AID2060618 (Molecular Pharmacology Branch, DTP, NCI, 2025).

System: 454973-116-R2-J3-PDC spheroids, percent test/control viability
Assay: Anticancer human tumor 454973-116-R2-J3-PDC patient-derived pancreatic carcinoma cell line growth inhibition [CLK]
Conditions: spheroids with HUVEC and MSC; for IC50: curve of first compound; for viability, T/C: stronger effect = lower value
How it was run: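 Patient-derived tumor cells grown as complex spheroids with HUVEC endothelial cells and mesenchymal stem cells, treated with drug combinations. Concentrations descend in half-log steps from near clinical Cmax, or from 10 microM if Cmax unknown.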

[1] = second compound 0.0316 µM, first compound 0.0316 µM
[2] = second compound 0.0316 µM, first compound 0.1 µM
[3] = second compound 0.0316 µM, first compound 0.316 µM
[4] = second compound 0.0316 µM, first compound 1 µM
[5] = second compound 0.0316 µM, first compound 3.16 µM
[6] = second compound 0.0316 µM, first compound 10 µM
[7] = second compound 0.1 µM, first compound 0.0316 µM
[8] = second compound 0.1 µM, first compound 0.1 µM
[9] = second compound 0.1 µM, first compound 0.316 µM
[10] = second compound 0.1 µM, first compound 1 µM
[11] = second compound 0.1 µM, first compound 3.16 µM
[12] = second compound 0.1 µM, first compound 10 µM
[13] = second compound 0.316 µM, first compound 0.0316 µM
[14] = second compound 0.316 µM, first compound 0.1 µM
[15] = second compound 0.316 µM, first compound 0.316 µM
[16] = second compound 0.316 µM, first compound 1 µM
[17] = second compound 0.316 µM, first compound 3.16 µM
[18] = second compound 0.316 µM, first compound 10 µM
[19] = second compound 1 µM, first compound 0.0316 µM
[20] = second compound 1 µM, first compound 0.1 µM
[21] = second compound 1 µM, first compound 0.316 µM
[22] = second compound 1 µM, first compound 1 µM
[23] = second compound 1 µM, first compound 3.16 µM
[24] = second compound 1 µM, first compound 10 µM
[25] = second compound 3.16 µM, first compound 0.0316 µM
[26] = second compound 3.16 µM, first compound 0.1 µM
[27] = second compound 3.16 µM, first compound 0.316 µM
[28] = second compound 3.16 µM, first compound 1 µM
[29] = second compound 3.16 µM, first compound 3.16 µM
[30] = second compound 3.16 µM, first compound 10 µM
[31] = second compound 10 µM, first compound 0.0316 µM
[32] = second compound 10 µM, first compound 0.1 µM
[33] = second compound 10 µM, first compound 0.316 µM
[34] = second compound 10 µM, first compound 1 µM
[35] = second compound 10 µM, first compound 3.16 µM
[36] = second compound 10 µM, first compound 10 µM
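Also: spheroids exposed to compounds for 7 days before readout.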

`CC(=O)O[C@H]1C(=O)[C@@]2(C)[C@H]([C@H](OC(=O)c3ccccc3)[C@]3(O)C[C@H](OC(=O)[C@H](O)[C@@H](NC(=O)c4ccccc4)c4ccccc4)C(C)=C1C3(C)C)[C@]1(OC(C)=O)CO[C@@H]1C[C@@H]2O` + CN1CCN(c2cc(C(=O)Nc3cc4cc(-c5cnn(C)c5)ccc4cn3)ccn2)CC1 was tested, and the IC50 (second compound 0.0316 µM) was < 31.6 nM, the IC50 (second compound 0.1 µM) was < 31.6 nM and the IC50 (second compound 0.316 µM) was < 31.6 nM. For the same compound, the IC50 (second compound 1 µM) was < 31.6 nM, the IC50 (second compound 3.16 µM) was < 31.6 nM and the IC50 (second compound 10 µM) was < 31.6 nM. It also gave a viability, T/C [1] of 7.05%, a viability, T/C [2] of 6.65% and a viability, T/C [3] of 6.57%. The viability, T/C [4] was 6.34%, the viability, T/C [5] was 6.67% and the viability, T/C [6] was 12.9%. The viability, T/C [7] was 5.8%, the viability, T/C [8] was 5.47% and the viability, T/C [9] was 3.95%. For the same compound, the viability, T/C [10] was 5.69%, the viability, T/C [11] was 4.88% and the viability, T/C [12] was 6.14%. For the same compound, the viability, T/C [13] was 1.6%, the viability, T/C [14] was 1.85% and the viability, T/C [15] was 2.44%. The viability, T/C [16] was 1.75%, the viability, T/C [17] was 1.77% and the viability, T/C [18] was 1.9%. It also gave a viability, T/C [19] of 0.11%, a viability, T/C [20] of 0.1% and a viability, T/C [21] of 0.92%. The viability, T/C [22] was 0.07%, the viability, T/C [23] was 0.08% and the viability, T/C [24] was 0.09%. The viability, T/C [25] was 0.14%, the viability, T/C [26] was 0.12% and the viability, T/C [27] was 0.21%. It also gave a viability, T/C [28] of 0.12%, a viability, T/C [29] of 0.15% and a viability, T/C [30] of 0.13%. It also gave a viability, T/C [31] of 0.14%, a viability, T/C [32] of 0.17% and a viability, T/C [33] of 0.19%. It also gave a viability, T/C [34] of 1.2%, a viability, T/C [35] of 0.16% and a viability, T/C [36] of 2.06%.
`COc1ccc([C@@H](O)c2cc(-c3ncnc4cc(N5CCOCC5)ccc34)c(F)cc2Cl)nn1` + CN1CCN(c2cc(C(=O)Nc3cc4cc(-c5cnn(C)c5)ccc4cn3)ccn2)CC1 was tested, and the IC50 (second compound 0.0316 µM) was > 10000 nM, the IC50 (second compound 0.1 µM) was 2720 nM and the IC50 (second compound 0.316 µM) was < 31.6 nM. For the same compound, the IC50 (second compound 1 µM) was < 31.6 nM, the IC50 (second compound 3.16 µM) was < 31.6 nM and the IC50 (second compound 10 µM) was < 31.6 nM. It also gave a viability, T/C [1] of 93.8%, a viability, T/C [2] of 107% and a viability, T/C [3] of 101%. It also gave a viability, T/C [4] of 90.8%, a viability, T/C [5] of 73.5% and a viability, T/C [6] of 54.9%. The viability, T/C [7] was 74.8%, the viability, T/C [8] was 79.1% and the viability, T/C [9] was 71.5%. For the same compound, the viability, T/C [10] was 66.5%, the viability, T/C [11] was 47.4% and the viability, T/C [12] was 28.6%. For the same compound, the viability, T/C [13] was 1.76%, the viability, T/C [14] was 1.85% and the viability, T/C [15] was 2.44%. The viability, T/C [16] was 1.05%, the viability, T/C [17] was 1.4% and the viability, T/C [18] was 2.15%. The viability, T/C [19] was 0.11%, the viability, T/C [20] was 0.11% and the viability, T/C [21] was 2.22%. It also gave a viability, T/C [22] of 0.08%, a viability, T/C [23] of 0.07% and a viability, T/C [24] of 0.06%. For the same compound, the viability, T/C [25] was 0.09%, the viability, T/C [26] was 0.15% and the viability, T/C [27] was 0.16%. For the same compound, the viability, T/C [28] was 0.14%, the viability, T/C [29] was 0.11% and the viability, T/C [30] was 0.72%. It also gave a viability, T/C [31] of 2.12%, a viability, T/C [32] of 0.13% and a viability, T/C [33] of 0.29%. The viability, T/C [34] was 0.16%, the viability, T/C [35] was 0.99% and the viability, T/C [36] was 0.16%.
